Results on 45 compounds are retold here after the PolyMetriX glass transition set.

`*C(=O)c1ccc2c(c1)C(=O)N(c1ccc(Oc3ccc(C(=O)c4cccc(C(=O)c5ccc(Oc6ccc(N7C(=O)c8ccc(*)cc8C7=O)cc6)cc5)c4)cc3)cc1)C2=O` (repeat unit): the glass transition temperature is 222.00 °C.
`*CCCN1C(=O)c2ccc(C(c3ccc4c(c3)C(=O)N(*)C4=O)(C(F)(F)F)C(F)(F)F)cc2C1=O` (repeat unit): the glass transition temperature turned out to be 190.00 °C.
With `*CCN1C(=O)c2ccc(C(c3ccc4c(c3)C(=O)N(*)C4=O)(C(F)(F)F)C(F)(F)F)cc2C1=O` (repeat unit) the figure was 180.00 °C; with `*Oc1ccc(Oc2ccc(C(=O)c3cccc(C(=O)c4ccc(*)cc4)c3)cc2)cc1S(=O)(=O)O` (repeat unit), 195.00 °C.
With `*Oc1ccc(S(=O)(=O)c2ccc(Oc3ccc(C(=O)c4cccc(C(=O)c5ccc(*)cc5)c4)cc3)cc2)cc1` (repeat unit) the figure was 178.00 °C; with `*c1cc(Br)c(Oc2c(Br)cc(N3C(=O)c4ccc(-c5ccc6c(c5)C(=O)N(*)C6=O)cc4C3=O)cc2Br)c(Br)c1` (repeat unit), 287.00 °C.
`*c1cc(N2C(=O)c3ccc(-c4ccc5c(c4)C(=O)N(*)C5=O)cc3C2=O)c(O)cc1O` (repeat unit): the glass transition temperature turned out to be 343.00 °C.
The figure for `*c1ccc(-c2ccc(N3C(=O)c4ccc(-c5cccc6c5C(=O)N(*)C6=O)cc4C3=O)cc2C(F)(F)F)c(C(F)(F)F)c1` (repeat unit) is 346.00 °C; for `*c1ccc(C(c2ccc(N3C(=O)c4ccc(-c5ccc6c(c5)C(=O)N(*)C6=O)cc4C3=O)cc2)(C(F)(F)F)C(F)(F)F)cc1` (repeat unit) it is 343.00 °C.
In turn, `*c1ccc(Cc2ccc(N3C(=O)c4ccc(S(=O)(=O)c5ccc6c(c5)C(=O)N(*)C6=O)cc4C3=O)cc2)cc1` (repeat unit) had a glass transition temperature of 319.00 °C.
Turning to `*c1ccc(N2C(=O)c3ccc(C(c4ccc5c(c4)C(=O)N(c4ccc(N6C(=O)c7ccc(-c8ccc9c(c8)C(=O)N(*)C9=O)cc7C6=O)cc4)C5=O)(C(F)(F)F)C(F)(F)F)cc3C2=O)cc1` (repeat unit), the glass transition temperature is 342.00 °C.
`*c1ccc(OCC2CCC(COc3ccc(N4C(=O)c5ccc(-c6ccc7c(c6)C(=O)N(*)C7=O)cc5C4=O)cc3)CC2)cc1` (repeat unit) returned a glass transition temperature of 254.40 °C.
Regarding `*c1ccc(Oc2ccc(-c3nc4ccc(Oc5ccc(N6C(=O)c7ccc(C(c8ccc9c(c8)C(=O)N(c8ccc(Oc%10ccc%11nc(*)c(-c%12ccccc%12)nc%11c%10)cc8)C9=O)(C(F)(F)F)C(F)(F)F)cc7C6=O)cc5)cc4nc3-c3ccccc3)cc2)cc1` (repeat unit), the glass transition temperature was 267.00 °C.
With `*c1ccc(Oc2ccc(C(=O)c3cccc(C(=O)c4ccc(Oc5ccc(N6C(=O)c7ccc(Oc8ccc(Oc9ccc(Oc%10ccc%11c(c%10)C(=O)N(*)C%11=O)cc9)cc8)cc7C6=O)cc5)cc4)c3)cc2)cc1` (repeat unit) the figure was 192.00 °C; with `*c1ccc(Oc2ccc(C(=O)c3cccc(C(=O)c4ccc(Oc5ccc(N6C(=O)c7ccc(Oc8ccc9c(c8)C(=O)N(*)C9=O)cc7C6=O)cc5)cc4)n3)cc2)cc1` (repeat unit), 208.60 °C.
With `*c1ccc(Oc2ccc(C(=O)c3cccc(C(=O)c4ccc(Oc5ccc(N6C(=O)c7ccc(Oc8ccc9c(c8)C(=O)N(*)C9=O)cc7C6=O)cc5C(F)(F)F)cc4)n3)cc2)c(C(F)(F)F)c1` (repeat unit) the figure was 212.20 °C.
For `*c1ccc(Oc2ccc(N3C(=O)c4ccc(-c5ccc6c(c5)C(=O)N(*)C6=O)cc4C3=O)cc2)cc1` (repeat unit), the glass transition temperature was determined as 279.00 °C.
The figure for `*c1ccc(Oc2ccc(N3C(=O)c4ccc(-c5ccc6c(c5)C(=O)N(*)C6=O)cc4C3=O)cc2Br)c(Br)c1` (repeat unit) is 275.00 °C; for `*c1ccc(Oc2ccc(N3C(=O)c4ccc(-c5cccc6c5C(=O)N(*)C6=O)cc4C3=O)cc2)cc1` (repeat unit) it is 320.00 °C.
With `*c1ccc(Oc2ccc(N3C(=O)c4ccc(P(=O)(c5ccccc5)c5ccc6c(c5)C(=O)N(*)C6=O)cc4C3=O)cc2)cc1` (repeat unit) the figure was 318.00 °C; with `*c1ccc(Oc2ccc(N3C(=O)c4ccc(S(=O)(=O)c5ccc6c(c5)C(=O)N(*)C6=O)cc4C3=O)cc2)cc1` (repeat unit), 283.50 °C; with `*c1ccc(Oc2ccc(Oc3ccc(N4C(=O)c5ccc(-c6ccc7c(c6)C(=O)N(*)C7=O)cc5C4=O)cc3)c(-c3ccccc3)c2)cc1` (repeat unit), 247.00 °C.
With `*c1ccc(Oc2ccc(S(=O)(=O)c3ccc(Oc4ccc(N5C(=O)c6ccc([Si](C)(C)c7ccc8c(c7)C(=O)N(*)C8=O)cc6C5=O)cc4)cc3)cc2)cc1` (repeat unit) the figure was 246.00 °C; with `*c1ccc(Oc2ccccc2Oc2ccc(N3C(=O)c4ccc(-c5ccc6c(c5)C(=O)N(*)C6=O)cc4C3=O)cc2)cc1` (repeat unit), 241.00 °C.
`*c1ccc(Sc2ccc(Sc3ccc(Sc4ccc(N5C(=O)c6ccc(-c7cccc8c7C(=O)N(*)C8=O)cc6C5=O)cc4)cc3)cc2)cc1` (repeat unit) yielded a glass transition temperature of 226.70 °C.
The figure for `*c1ccc2c(c1)C(=O)N(c1cc(C(c3ccc(O)c(N4C(=O)c5ccc(C(*)(C(F)(F)F)C(F)(F)F)cc5C4=O)c3)(C(F)(F)F)C(F)(F)F)ccc1O)C2=O` (repeat unit) is 330.00 °C; for `*c1ccc2c(c1)C(=O)N(c1ccc(C(c3ccc(N4C(=O)c5ccc(C(*)(C(F)(F)F)C(F)(F)F)cc5C4=O)cc3)(C(F)(F)F)C(F)(F)F)cc1)C2=O` (repeat unit) it is 315.10 °C.
With `*c1ccc2c(c1)C(=O)N(c1ccc(C(c3ccccc3)(c3ccc(N4C(=O)c5ccc(C(*)(C(F)(F)F)C(F)(F)F)cc5C4=O)cc3)C(F)(F)F)cc1)C2=O` (repeat unit) the figure was 305.00 °C.
Turning to `*c1ccc2c(c1)C(=O)N(c1ccc(C3(c4ccc(N5C(=O)c6ccc(C(*)(C(F)(F)F)C(F)(F)F)cc6C5=O)cc4)c4ccccc4-c4ccccc43)cc1)C2=O` (repeat unit), the glass transition temperature was determined as 370.00 °C.
As for `*c1ccc2c(c1)C(=O)N(c1ccc(Cc3ccc(N4C(=O)c5ccc(C(*)(C(F)(F)F)C(F)(F)F)cc5C4=O)cc3)cc1)C2=O` (repeat unit), the glass transition temperature amounted to 297.00 °C.
With `*c1ccc2c(c1)C(=O)N(c1ccc(NC(=O)C(F)(F)C(F)(F)C(F)(F)C(F)(F)C(F)(F)C(F)(F)C(=O)Nc3ccc(N4C(=O)c5ccc(C(*)(C(F)(F)F)C(F)(F)F)cc5C4=O)cc3)cc1)C2=O` (repeat unit) the figure was 265.00 °C; with `*c1ccc2c(c1)C(=O)N(c1ccc(OCCN(CCOc3ccc(N4C(=O)c5ccc(C(*)(C(F)(F)F)C(F)(F)F)cc5C4=O)cc3)c3ccccc3)cc1)C2=O` (repeat unit), 170.00 °C.
The figure for `*c1ccc2c(c1)C(=O)N(c1ccc(OCCOCCOc3ccc(N4C(=O)c5ccc(C(*)(C(F)(F)F)C(F)(F)F)cc5C4=O)cc3)cc1)C2=O` (repeat unit) is 187.50 °C; for `*c1ccc2c(c1)C(=O)N(c1ccc(Oc3ccc(C(=O)c4cccc(C(=O)c5ccc(Oc6ccc(N7C(=O)c8ccc(C(*)(C(F)(F)F)C(F)(F)F)cc8C7=O)cc6)cc5)c4)cc3)cc1)C2=O` (repeat unit) it is 236.00 °C; for `*c1ccc2c(c1)C(=O)N(c1ccc(Oc3ccc(N4C(=O)c5ccc(C(*)O[Si](C)(C)O[Si](C)(C)O[Si](C)(C)C)cc5C4=O)cc3)cc1)C2=O` (repeat unit) it is 167.00 °C.
With `*c1ccc2c(c1)C(=O)N(c1ccc(Oc3ccc(N4C(=O)c5ccc(C(F)(F)C(F)(F)C(F)(F)C(F)(F)C(F)(F)C(F)(F)C(*)(F)F)cc5C4=O)cc3)cc1)C2=O` (repeat unit) the figure was 178.00 °C.
For the compound `*c1ccc2c(c1)C(=O)N(c1ccc(Oc3ccc(N4C(=O)c5ccc(C(F)(F)C(F)(F)C(F)(F)C(F)(F)C(F)(F)C(F)(F)C(F)(F)C(*)(F)F)cc5C4=O)cc3)cc1)C2=O` (repeat unit), the glass transition temperature was 186.00 °C.
With `*c1ccc2c(c1)C(=O)N(c1ccc(Oc3ccccc3Oc3ccc(N4C(=O)c5ccc(C(*)(C(F)(F)F)C(F)(F)F)cc5C4=O)cc3C(F)(F)F)c(C(F)(F)F)c1)C2=O` (repeat unit) the figure was 247.00 °C.
`*c1ccc2c(c1)C(=O)N(c1ccc(Sc3ccc(Oc4ccc(Sc5ccc(N6C(=O)c7ccc(C(*)(C(F)(F)F)C(F)(F)F)cc7C6=O)cc5)cc4)cc3)cc1)C2=O` (repeat unit) showed a glass transition temperature of 242.00 °C.
In turn, `*c1ccc2c(c1)C(=O)N(c1ccc3c(c1)Cc1cc(N4C(=O)c5ccc(C(*)(C(F)(F)F)C(F)(F)F)cc5C4=O)ccc1-3)C2=O` (repeat unit) displayed a glass transition temperature of 394.00 °C.
`*c1ccc2c(c1)C(=O)N(c1cccc(C(F)(F)C(F)(F)C(F)(F)c3cccc(N4C(=O)c5ccc(C(F)(F)C(F)(F)C(F)(F)C(F)(F)C(F)(F)C(F)(F)C(*)(F)F)cc5C4=O)c3)c1)C2=O` (repeat unit) registered a glass transition temperature of 133.50 °C.
With `*c1ccc2c(c1)C(=O)N(c1cccc(C(c3cccc(N4C(=O)c5ccc(C(*)(C(F)(F)F)C(F)(F)F)cc5C4=O)c3)(C(F)(F)F)C(F)(F)F)c1)C2=O` (repeat unit) the figure was 263.00 °C.
For `*c1ccc2c(c1)C(=O)N(c1cccc(Oc3ccc(N4C(=O)c5ccc(-c6c(-c7ccccc7)c(-c7ccccc7)c(-c7ccc(Oc8ccc(-c9c(-c%10ccccc%10)c(-c%10ccccc%10)c(*)c(-c%10ccccc%10)c9-c9ccccc9)cc8)cc7)c(-c7ccccc7)c6-c6ccccc6)cc5C4=O)cc3)c1)C2=O` (repeat unit), the glass transition temperature was determined as 309.00 °C.
In turn, `*c1ccc2c(c1)C(=O)N(c1ccccc1Oc1ccc(N3C(=O)c4ccc(C(*)(C(F)(F)F)C(F)(F)F)cc4C3=O)cc1)C2=O` (repeat unit) came in with a glass transition temperature of 276.00 °C.
`*c1ccc2nc(-c3ccc4c(c3)C(=O)N(c3cc(C(*)(C(F)(F)F)C(F)(F)F)ccc3O)C4=O)oc2c1` (repeat unit) registered a glass transition temperature of 329.00 °C.
